The source of these data is ChEMBL document CHEMBL1201862, “PubChem BioAssay data set” (2004).

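In this assay, cells in 96-well plates receive the compound at five concentrations for 48 hours. Endpoints are linearly interpolated between the surrounding concentrations. Abbreviation: GI50, concentration required for 50% inhibition of growth.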 Calls of active or inactive are those of the source. No stated cut-off is given here; in the data, active = GI50 up to about 1.1 µM and inactive = higher.

Some test systems named below: SK-MEL-28; CCRF-CEM; K562; COLO 205; A549; HOP-62; SK-OV-3; SW-620; TK-10; SN12C; NCI-H226; 786-0; ACHN; SK-MEL-5; DU-145; A498; HL-60; U-251; SF-539; IGROV-1.
What all share (experiment): inhibition of tumour cell growth, NCI panel, 48 h

`CCOP1(=O)CC(C)=C(Cl)C(O)C1` (stereo not given): the GI50 in the test with SK-MEL-28, with CCRF-CEM, in the test on K562, in the test with COLO 205, in the test on A549 and with HOP-62 was > 100 µM (inactive) throughout. Moreover, the GI50 in the test with SK-OV-3, in the test with SW-620, with TK-10, with SN12C, with NCI-H226 and with 786-0 was > 100 µM (inactive) each time. Moreover, the GI50 with ACHN, with SK-MEL-5, in the test on DU-145, with A498, with HL-60 and in the test on U-251 was > 100 µM (inactive) throughout. Further, the GI50 with SF-539 and with IGROV-1 was > 100 µM (inactive) throughout.

For the molecule `Cc1nc2c(O)c3c(c(O)c2nc1C)C1C=CC3CC1`, the GI50 in the test with SK-MEL-28 was 16.4 µM (inactive); with CCRF-CEM, 1.25 µM (inactive); in the test on K562 it was 2.09 µM (inactive); with COLO 205, 19.7 µM (inactive); with A549, 24.9 µM (inactive); with HOP-62, 19.6 µM (inactive). Further, the GI50 is 22 µM (inactive) in the test on SK-OV-3; 12.4 µM (inactive) with SW-620; 20.6 µM (inactive) in the test on TK-10; 12.7 µM (inactive) in the test with SN12C; 29.6 µM (inactive) in the test with NCI-H226; 13.9 µM (inactive) in the test with 786-0. Further, the GI50 with ACHN is 11.2 µM (inactive); with SK-MEL-5, 14 µM (inactive); in the test with DU-145 it was > 75.3 µM (inactive); in the test on A498, 42.9 µM (inactive); in the test on HL-60 it was 0.973 µM (active); with U-251 it was 9.44 µM (inactive). Moreover, the GI50 was 14.6 µM (inactive) with SF-539 and 7.31 µM (inactive) in the test with IGROV-1.

Take `c1ccc2c(OCC3CO3)ccc(OCC3CO3)c2c1` (stereo not given): the GI50 in the test on SK-MEL-28 is 9.98 µM (inactive); in the test on CCRF-CEM, 0.27 µM (active); in the test with K562, 2 µM (inactive); in the test with COLO 205, 10.6 µM (inactive); in the test with A549, 4.32 µM (inactive); in the test on HOP-62, 3.03 µM (inactive). Moreover, the GI50 in the test on SK-OV-3 was 12.6 µM (inactive); in the test with SW-620, 1.26 µM (inactive); in the test on TK-10 it was 13.5 µM (inactive); in the test with SN12C, 2.22 µM (inactive); in the test with NCI-H226 it was 12.1 µM (inactive); in the test on 786-0, 2.11 µM (inactive). In addition, the GI50 with ACHN was 1.89 µM (inactive); in the test on SK-MEL-5 it was 6.64 µM (inactive); in the test with DU-145 it was 2.36 µM (inactive); with A498, 17 µM (inactive); in the test with HL-60, 0.321 µM (active); in the test with U-251 it was 2.32 µM (inactive). Besides, the GI50 in the test with SF-539 is 2.21 µM (inactive); with IGROV-1 it was 3.44 µM (inactive).

As for `COc1ccc(NC/C=C/C(=C/COC(C)=O)OC(C)=O)cc1`, the GI50 was 1.87 µM (inactive) in the test with SK-MEL-28; 1.77 µM (inactive) in the test with CCRF-CEM; 1.85 µM (inactive) in the test with K562; 1.88 µM (inactive) with COLO 205; 15.3 µM (inactive) with A549; 2.42 µM (inactive) in the test on HOP-62. Moreover, the GI50 with SK-OV-3 is 14.9 µM (inactive); in the test on SW-620 it was 1.69 µM (inactive); with TK-10, 1.87 µM (inactive); in the test with SN12C it was 2.12 µM (inactive); in the test on NCI-H226 it was 19.3 µM (inactive); in the test on 786-0, 1.18 µM (inactive). In addition, the GI50 is 1.73 µM (inactive) with ACHN; 15.3 µM (inactive) with SK-MEL-5; 3.11 µM (inactive) in the test on DU-145; 1.39 µM (inactive) in the test with A498; 2.27 µM (inactive) in the test on HL-60; 2.44 µM (inactive) in the test with U-251. Further, the GI50 in the test on SF-539 is 2 µM (inactive); with IGROV-1, 1.8 µM (inactive).
